Where “and” joins values, the source holds several entries; their conditions need not be identical. Equal entries are not always repeated. Toxic doses and inconclusive results are not listed. How the source made its calls: active means survival T/C of 150% or more; inactive means T/C below 125% in these data.
Tested on: P388 leukemia ip, CD2F1 mice, survival T/C
Assay: NCI In Vivo Anticancer Drug Screen. Data for tumor model P388 Leukemia (intraperitoneal) in CD2F1 (CDF1) mice
Conditions: endpoint: median survival time, higher = longer survival
In short: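 Mice carrying the transplanted tumor received test compound or vehicle. Survival was recorded in each group, and the value is the treated-group measurement divided by that of the vehicle-treated control group.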

[1] = dose: 50.0 mg/kg/injection, schedule: Q01DX005 (ip), vehicle: Klucel (hydroxypropylcellulose) (HPC)
[2] = dose: 100.0 mg/kg/injection, schedule: Q04DX003 (ip), vehicle: Klucel (hydroxypropylcellulose) (HPC)
[3] = dose: 200.0 mg/kg/injection, schedule: Q04DX003 (ip), vehicle: Klucel (hydroxypropylcellulose) (HPC)
[4] = dose: 50.0 mg/kg/injection, schedule: Q01DX005 (ip), vehicle: saline with Tween-80
[5] = dose: 100.0 mg/kg/injection, schedule: Q01DX005 (ip), vehicle: saline with Tween-80
[6] = dose: 200.0 mg/kg/injection, schedule: Q01DX005 (ip), vehicle: saline with Tween-80
[7] = dose: 100.0 mg/kg/injection, schedule: Q01DX005 (ip), vehicle: Klucel (hydroxypropylcellulose) (HPC)
[8] = dose: 200.0 mg/kg/injection, schedule: Q01DX005 (ip), vehicle: Klucel (hydroxypropylcellulose) (HPC)

Measured: T/C

O=C(N/C=C/c1ccco1)NC1CCCCCCCCCCC1
inactive: dose: 12.5 mg/kg/injection, schedule: Q01DX005 (ip), vehicle: Klucel (hydroxypropylcellulose) (HPC) 95 % of control | dose: 25.0 mg/kg/injection, schedule: Q01DX005 (ip), vehicle: Klucel (hydroxypropylcellulose) (HPC) 92 % of control | [1] 89 % of control

COc1cc2c3c(cccc3c1)C(=O)N(CCN1CCCC1)C2=O
inactive: dose: 17.3 mg/kg/injection, schedule: Q01DX009 (ip), vehicle: saline with Tween-80 112 % of control | dose: 34.7 mg/kg/injection, schedule: Q01DX009 (ip), vehicle: saline with Tween-80 116 % of control | dose: 50.0 mg/kg/injection, schedule: Q04DX003 (ip), vehicle: Klucel (hydroxypropylcellulose) (HPC) 100 % of control | dose: 69.3 mg/kg/injection, schedule: Q01DX009 (ip), vehicle: saline with Tween-80 116 % of control | [2] 101 % of control | [3] 100 % of control

COc1ccc2c(ccc[n+]2C)c1
inactive: dose: 5.0 mg/kg/injection, schedule: Q01DX009 (ip), vehicle: saline with Tween-80 100 % of control | dose: 10.0 mg/kg/injection, schedule: Q01DX009 (ip), vehicle: saline with Tween-80 110 % of control | dose: 20.0 mg/kg/injection, schedule: Q01DX009 (ip), vehicle: saline with Tween-80 110 % of control

Cc1sc(C)c2c1C[Se]Cc1c(C)sc(C)c1C[Se]C2
inactive: dose: 400.0 mg/kg/injection, schedule: Q01DX001 (ip), vehicle: saline with Tween-80 87 % of control

O=C1c2ccccc2C(=O)c2cc(NC(=O)C(F)(F)F)ccc21
inactive: dose: 50.0 mg/kg/injection, schedule: Q01DX005 (ip), vehicle: Klucel + Tween-80 99 % of control | dose: 100.0 mg/kg/injection, schedule: Q01DX005 (ip), vehicle: Klucel + Tween-80 95 % of control | dose: 200.0 mg/kg/injection, schedule: Q01DX005 (ip), vehicle: Klucel + Tween-80 96 % of control

O=C(/C=C/C1CCCC(O)C1)C1CCCCC1 (stereo not given)
inactive: [4] 91 % of control | [5] 89 % of control | [6] 91 % of control

Cc1ccc(N(O)C(=O)c2ccccc2)c(C)c1
inactive: [4] 102 % of control and 98 % of control | [5] 92 % of control and 93 % of control | [6] 123 % of control and 98 % of control | dose: 400.0 mg/kg/injection, schedule: Q01DX005 (ip), vehicle: saline with Tween-80 111 % of control

Clc1ccc2nc(Cl)[nH]c2c1
inactive: [1] 102 % of control | [7] 100 % of control | [8] 99 % of control

CCOc1ccc(-n2c(=O)c(N=Nc3ccccc3OC)c(O)n(-c3ccccc3Cl)c2=S)cc1
inactive: dose: 100.0 mg/kg/injection, schedule: Q01DX001 (ip), vehicle: Klucel (hydroxypropylcellulose) (HPC) 102 % of control | dose: 200.0 mg/kg/injection, schedule: Q01DX001 (ip), vehicle: Klucel (hydroxypropylcellulose) (HPC) 101 % of control | dose: 400.0 mg/kg/injection, schedule: Q01DX001 (ip), vehicle: Klucel (hydroxypropylcellulose) (HPC) 105 % of control

Clc1ccccc1C(c1ccccc1)(c1ccccc1)n1ccnc1
inactive: dose: 50.0 mg/kg/injection, schedule: Q01DX009 (ip), vehicle: saline 113 % of control | dose: 100.0 mg/kg/injection, schedule: Q01DX009 (ip), vehicle: saline 113 % of control | dose: 200.0 mg/kg/injection, schedule: Q01DX009 (ip), vehicle: saline 113 % of control

CC1=CCC(C#N)N(C)C1c1ccccc1 (stereo not given)
inactive: [1] 108 % of control | [7] 97 % of control | [8] 99 % of control

NC(=O)CCSC1=CC(=O)c2ccccc2C1=O
inactive: dose: 3.13 mg/kg/injection, schedule: Q04DX003 (ip), vehicle: saline with Tween-80 103 % of control | dose: 6.25 mg/kg/injection, schedule: Q04DX003 (ip), vehicle: saline with Tween-80 110 % of control | dose: 12.5 mg/kg/injection, schedule: Q04DX003 (ip), vehicle: saline with Tween-80 103 % of control and 110 % of control

CCOP(=O)(O)C1CCCC(C)[N-]1.CCOP(=O)(O)C1CCCC(C)[N-]1.[Mn+2] (stereo not given)
inactive: [2] 100 % of control | [3] 111 % of control

Source: PubChem BioAssay AID330 (DTP/NCI, 2004)
